The text below walks through data of patent US10556884B2, “Pesticidally active heterocyclic derivatives with sulphur containing substituents” (SYNGENTA PARTICIPATIONS AG, priority 2015, dated 2020).

Broadly, the mortality is the share of the test organisms that died. One may read the melting point as the temperature of the solid-liquid transition.

In data set [1] the test system is Myzus persicae (Green Peach Aphid). Put plainly: Myzus persicae systemic activity, pea seedlings. It counts as in vivo. To be noted: 144 h, test rate of 24 ppm, 6 days after placing seedlings into test solutions.
Data set [2] shares this test system. Put plainly: Myzus persicae feeding/contact activity, sunflower leaf discs. Format: in vivo. The note with it: foliar, 144 h, application rate of 200 ppm, feeding/contact, population of mixed ages, 6 days after infestation, read-out: mortality. How it is done: Example B5: Myzus persicae (Green Peach Aphid): Feeding/Contact Activity
Sunflower leaf discs were placed onto agar in a 24-well microtiter plate and sprayed with aqueous test solutions prepared from 10′000 ppm DMSO stock solutions. After drying, the leaf discs were infested with an aphid population of mixed ages. The samples were assessed for mortality 6 days after infestation.

The subject of data set [3] is Diabrotica Balteata (Corn Root Worm). Put plainly: Diabrotica balteata L2 larvae on maize sprouts. It counts as in vivo. To be noted: 96 h, application rate of 200 ppm, L2 larvae, 4 days after infestation, read-out: effect in at least one of the two categories (mortality or growth inhibition). How it is done:
Example B2: Diabrotica Balteata (Corn Root Worm)
Maize sprouts placed onto an agar layer in 24-well microtiter plates were treated with aqueous test solutions prepared from 10′000 ppm DMSO stock solutions by spraying. After drying, the plates were infested with L2 larvae (6 to 10 per well). The samples were assessed for mortality and growth inhibition in comparison to untreated samples 4 days after infestation.

Data set [4] has as its system Frankliniella occidentalis (Western Flower Thrips). Description: Frankliniella occidentalis feeding/contact activity, sunflower leaf discs. It counts as in vivo. The note with it: foliar, 168 h, application rate of 200 ppm, population of mixed ages, 7 days after infestation. How it is done: Example B4: Frankliniella occidentalis (Western Flower Thrips): Feeding/Contact Activity
Sunflower leaf discs were placed on agar in 24-well microtiter plates and sprayed with aqueous test solutions prepared from […] stock solutions. After drying the leaf discs were infested with a Frankliniella population of mixed ages. The samples were assessed for mortality 7 days after infestation.

Data set [5] has as its system Plutella xylostella (Diamond Back Moth). Description: Plutella xylostella L2 larvae on artificial diet. Format: in vivo. The note with it: 120 h, application rate of 200 ppm, L2 larvae, 5 days after infestation, read-out: effect in at least one of the two categories (mortality or growth inhibition). How it is done: Example B7: Plutella xylostella (Diamond Back Moth)
24-well microtiter plates with artificial diet were treated with aqueous test solutions prepared from 10′000 ppm DMSO stock solutions by pipetting. After drying, the plates were infested with L2 larvae (10 to 15 per well). The samples were assessed for mortality and growth inhibition in comparison to untreated samples 5 days after infestation.

The subject of data set [6] is Euschistus heros (Neotropical Brown Stink Bug). Put plainly: Euschistus heros N2 nymphs on soybean leaves. It counts as in vivo. To be noted: 120 h, application rate of 200 ppm, 5 days after infestation, read-out: effect in at least one of the two categories (mortality or growth inhibition).
Data set [7] deals with Spodoptera littoralis (Egyqptian Cotton Leaf Worm). Put plainly: Spodoptera littoralis L1 larvae on sprayed cotton leaf discs. Format: in vivo. To be noted: foliar, 72 h, application rate of 200 ppm, L1 larvae, 3 days after infestation, read-out: control (mortality, anti-feeding effect, growth inhibition). On the procedure: Example B8: Spodoptera littoralis (Egyqptian Cotton Leaf Worm)
Cotton leaf discs were placed onto agar in 24-well microtiter plates and sprayed with aqueous test solutions prepared from 10′000 ppm DMSO stock solutions. After drying the leaf discs were infested with five L1 larvae. The samples were assessed for mortality, anti-feeding effect, and growth inhibition in comparison to untreated samples 3 days after infestation. Control of Spodoptera littoralis by a test sample is given when at least one of the categories mortality, anti-feedant effect, and growth inhibition is higher than the untreated sample.

For data set [8], the system named is Tetranychus urticae (Two-Spotted Spider Mite). Description: Tetranychus urticae feeding/contact activity, bean leaf discs. Format: in vivo. To be noted: foliar, 192 h, application rate of 200 ppm, mixed population (mobile stages), 8 days after infestation. On the procedure: Example B10: Tetranychus urticae (Two-Spotted Spider Mite): Feeding/Contact Activity
Bean leaf discs on agar in 24-well microtiter plates were sprayed with aqueous test solutions prepared from 10′000 ppm DMSO stock solutions. After drying the leaf discs were infested with a mite population of mixed ages. The samples were assessed for mortality on mixed population (mobile stages) 8 days after infestation.

For data set [9], the system named is Bemisia tabaci (Cotton White Fly). Description: Bemisia tabaci feeding/contact activity, cotton leaf discs. It counts as in vivo. The note with it: foliar, 144 h, application rate of 200 ppm, adult white flies, 6 days after incubation. How it is done:
Example B1: Bemisia tabaci (Cotton White Fly): Feeding/Contact Activity
Cotton leaf discs were placed on agar in 24-well microtiter plates and sprayed with aqueous test solutions prepared from 10′000 ppm DMSO stock solutions. After drying the leaf discs were infested with adult white flies. The samples were checked for mortality 6 days after incubation.

Data set [10] relates to Thrips tabaci (Onion Thrips). Description: Thrips tabaci feeding/contact activity, sunflower leaf discs. It counts as in vivo. To be noted: foliar, 144 h, application rate of 200 ppm, population of mixed ages, 6 days after infestation. On the procedure: Example B11: Thrips tabaci (Onion Thrips) Feeding/Contact Activity
Sunflower leaf discs were placed on agar in 24-well microtiter plates and sprayed with aqueous test solutions prepared from 10′000 ppm DMSO stock solutions. After drying the leaf discs were infested with a thrips population of mixed ages. The samples were assessed for mortality 6 days after infestation.

SMILES strings stand for the structures.

In data set [1], `CCS(=O)(=O)c1cc(NC(=O)C2CC2)cnc1-c1nnc(-c2cc(C(F)(F)F)ccn2)n1C` [A2, N-[5-ethylsulfonyl-6-[4-methyl-5-[4-(trifluoromethyl)-2-pyridyl]-1,2,4-triazol-3-yl]-3-pyridyl]cyclopropanecarboxamide] came in with a mortality at 24 ppm of at least 80%. Also, the mortality at 200 ppm in [2] and in [4] was at least 80% each time. Moreover, the percent effect (mortality or growth inhibition) at 200 ppm in data set [3] is at least 80%.

Regarding `CCS(=O)(=O)c1ccc(NC(=O)C2CC2)nc1-c1nnc(-c2cc(C(F)(F)F)ccn2)n1C` [A6, N-[5-ethylsulfonyl-6-[4-methyl-5-[4-(trifluoromethyl)-2-pyridyl]-1,2,4-triazol-3-yl]-2-pyridyl]cyclopropanecarboxamide], in data set [1], the mortality at 24 ppm was at least 80%. For the same molecule, the mortality at 200 ppm in [2] and in data set [4] was at least 80% in each case.

Consider `CCS(=O)(=O)c1cc(N(C)C(=O)C2CC2)cnc1-c1nnc(-c2cc(C(F)(F)F)ccn2)n1C` [A7, N-[5-ethylsulfonyl-6-[4-methyl-5-[4-(trifluoromethyl)-2-pyridyl]-1,2,4-triazol-3-yl]-3-pyridyl]-N-methyl-cyclopropanecarboxamide], for which the mortality at 24 ppm in [1] is at least 80%. In addition, the percent effect (mortality or growth inhibition) at 200 ppm in data set [5] and in [6] was at least 80% throughout. In addition, the mortality at 200 ppm in [2] and in data set [4] was at least 80% throughout.

`CCS(=O)(=O)c1cc(NC2CC2)cnc1-c1nnc(-c2cc(C(F)(F)F)ccn2)n1C` [A9, N-cyclopropyl-5-ethylsulfonyl-6-[4-methyl-5-[4-(trifluoromethyl)-2-pyridyl]-1,2,4-triazol-3-yl]pyridin-3-amine]: the mortality at 200 ppm in data set [7], in [2] and in data set [8] was at least 80% in each case. The molecule further returned a mortality at 24 ppm in data set [1] of at least 80%. Besides, the percent effect (mortality or growth inhibition) at 200 ppm in data set [6] is at least 80%.

Turning to `CCS(=O)(=O)c1ccc(C(=O)N(C)C2CC2)nc1-c1nnc(-c2cc(C(F)(F)F)ccn2)n1C` [A17, N-cyclopropyl-5-ethylsulfonyl-N-methyl-6-[4-methyl-5-[4-(trifluoromethyl)-2-pyridyl]-1,2,4-triazol-3-yl]pyridine-2-carboxamide], in data set [1], the mortality at 24 ppm was at least 80%. Besides, the mortality at 200 ppm in data set [2] and in data set [9] was at least 80% throughout.

With `CCS(=O)(=O)c1cc(C(=O)NC2CC2)cnc1-c1nnc(-c2cc(C(F)(F)F)ccn2)n1C` [A18, N-cyclopropyl-5-ethylsulfonyl-6-[4-methyl-5-[4-(trifluoromethyl)-2-pyridyl]-1,2,4-triazol-3-yl]pyridine-3-carboxamide], in [1], the mortality at 24 ppm was at least 80%. Moreover, in data set [8], the mortality at 200 ppm was at least 80%.

`CCS(=O)(=O)c1cc(N(C(=O)C2CC2)S(C)(=O)=O)cnc1-c1nnc(-c2cc(C(F)(F)F)ccn2)n1C` [A20, N-[5-ethylsulfonyl-6-[4-methyl-5-[4-(trifluoromethyl)-2-pyridyl]-1,2,4-triazol-3-yl]-3-pyridyl]-N-methylsulfonyl-cyclopropanecarboxamide] displayed a melting point of 229 to 231 °C.

`CCS(=O)(=O)c1cc(C(=O)NC2(C#N)CC2)cnc1-c1nnc(-c2cc(C(F)(F)F)ccn2)n1C` [A23, N-(1-cyanocyclopropyl)-5-ethylsulfonyl-6-[4-methyl-5-[4-(trifluoromethyl)-2-pyridyl]-1,2,4-triazol-3-yl]pyridine-3-carboxamide] had a melting point of 211 to 213 °C.

In turn, `CCS(=O)(=O)c1cc(C(=O)NCC#N)cnc1-c1nnc(-c2cc(C(F)(F)F)ccn2)n1C` [A26, N-(cyanomethyl)-5-ethylsulfonyl-6-[4-methyl-5-[4-(trifluoromethyl)-2-pyridyl]-1,2,4-triazol-3-yl]pyridine-3-carboxamide] returned a mortality at 24 ppm in data set [1] of at least 80%. The mortality at 200 ppm in [2] and in data set [8] was at least 80% in each case.

`CCS(=O)(=O)c1cc(N(C)N)cnc1-c1nnc(-c2cc(C(F)(F)F)ccn2)n1C` [A30, 1-[5-ethylsulfonyl-6-[4-methyl-5-[4-(trifluoromethyl)-2-pyridyl]-1,2,4-triazol-3-yl]-3-pyridyl]-1-methyl-hydrazine]: in [2], the mortality at 200 ppm is at least 80%. Further, the percent effect (mortality or growth inhibition) at 200 ppm in [6] was at least 80%.

Regarding `CCS(=O)(=O)c1ccc(NCC(F)(F)F)nc1-c1nnc(-c2cc(C(F)(F)F)ccn2)n1C` [A32, 5-ethylsulfonyl-6-[4-methyl-5-[4-(trifluoromethyl)-2-pyridyl]-1,2,4-triazol-3-yl]-N-(2,2,2-trifluoroethyl)pyridin-2-amine], in data set [8], the mortality at 200 ppm was at least 80%.

In turn, `CCS(=O)(=O)c1ccc(N)nc1-c1nnc(-c2cc(C(F)(F)F)ccn2)n1C` [A36, 5-ethylsulfonyl-6-[4-methyl-5-[4-(trifluoromethyl)-2-pyridyl]-1,2,4-triazol-3-yl]pyridin-2-amine] returned a mortality at 24 ppm in [1] of at least 80%. For the same molecule, in [2], the mortality at 200 ppm was at least 80%. Also, the percent effect (mortality or growth inhibition) at 200 ppm in data set [6] was at least 80%.

Regarding `CCS(=O)(=O)c1ccc(NC(=O)OC(C)(C)C)nc1-c1nnc(-c2cc(C(F)(F)F)ccn2)n1C` [A37, tert-butyl N-[5-ethylsulfonyl-6-[4-methyl-5-[4-(trifluoromethyl)-2-pyridyl]-1,2,4-triazol-3-yl]-2-pyridyl]carbamate], the mortality at 200 ppm in [7] and in data set [4] was at least 80% in each case. Also, the mortality at 24 ppm in data set [1] was at least 80%. Further, the percent effect (mortality or growth inhibition) at 200 ppm in data set [5] is at least 80%.

In the case of `CCS(=O)(=O)c1cc(Cl)c(N)nc1-c1nnc(-c2cc(C(F)(F)F)ccn2)n1C` [A42, 3-chloro-5-ethylsulfonyl-6-[4-methyl-5-[4-(trifluoromethyl)-2-pyridyl]-1,2,4-triazol-3-yl]pyridin-2-amine], the mortality at 200 ppm in data set [7], in data set [2], in data set [9] and in data set [10] was at least 80% throughout. Further, the mortality at 24 ppm in data set [1] is at least 80%. Also, the percent effect (mortality or growth inhibition) at 200 ppm in data set [5] and in data set [3] was at least 80% in each case.

With `CCS(=O)(=O)c1cc(Br)c(N)nc1-c1nnc(-c2cc(C(F)(F)F)ccn2)n1C` [A43], the mortality at 200 ppm in [7], in data set [2], in [9] and in [10] was at least 80% throughout. This molecule also came in with a mortality at 24 ppm in data set [1] of at least 80%. Also, the percent effect (mortality or growth inhibition) at 200 ppm in data set [5] and in data set [3] was at least 80% throughout.
